Results published in patent publication US4181803A, “Propiophenone derivatives and preparation thereof” (Eisai Co., Ltd., priority 1973, dated 1980).

Legend:
[1] = system: motor function and maintenance of righting reflex; assay: animal or person; format: in vivo, male d,d-strain mice; conditions: Mus musculus, po, 1 h, read-out: Motor Ataxia, ED50
Protocol: (§1) Male d,d-strain mice weighing 18 to 22 grs. were used for the experiments.
(§2) Groups of each 10 mice were treated orally and intraperitoneally with a wide range of doses of the above-mentioned compounds or saline.
The numerals given in the following Table 1 indicate ED50 values (in mg/kg) which were calculated 60 minutes after the oral administration of the compounds under test.

[2] = system: isolated smooth muscle preparations; assay: Smooth muscle-relaxing activity on isolated smooth muscle preparations
Excerpt: Additionally, anti-histamine, anti-acetylcholine, anti-serotonin and smooth muscle-relaxing activities of the compounds under test were examined on isolated smooth muscle preparations

mice = assay: Acute toxicity (24-hour mortality); format: in vivo; conditions: oral, from Table 1
Protocol: as §1, §2
The mortality ensued during 24 hours after the oral administration was recorded to determine acute toxicity of the compound under test on the mice.

SMILES	ED50 [1]	smooth muscle-relaxant activity (in words) [2]	acute toxicity compared with Compound under control (in words) (mice)
CCCc1ccc(C(=O)C(C)CN2CCCCC2)cc1.Cl (stereo not shown) [Compound B, 4'-n-propyl-2-methyl-3-piperidino-propiophenone hydrochloride]	800 mg/kg	strong	almost equivalent
CCc1ccc(C(=O)C(C)CN2CCCCC2)cc1.Cl (stereo not shown) [Compound A, 4'-ethyl-2-methyl-3-piperidino-propiophenone hydrochloride]	640 mg/kg	strong	slightly stronger
Cc1ccc(C(=O)C(C)CN2CCCCC2)cc1.Cl (stereo not shown) [Compound for control, 2,4'-dimethyl-3-piperidino-propiophenone hydrochloride, reference compound]	800 mg/kg	weak	–
CC(CN1CCCCC1)C(=O)c1ccc(C(C)C)cc1.Cl (stereo not shown) [Compound C, 4'-isopropyl-2-methyl-3-piperidino-propiophenone hydrochloride]	84 mg/kg	strong	–
